Here are results for 23 compounds from patent publication US11524966B1 (Valo Early Discovery, Inc., priority 2017, dated 2022).

For orientation: IC50 means the concentration at which inhibition is half-maximal.

The test concerns the target T1, USP25 (USP25-His6, Boston Biochem E-546) (Homo sapiens, UniProt Q9UHP3).
T1 construct: His6; purchased Boston Biochem E-546
T1 sequence (Q9UHP3 1-1055): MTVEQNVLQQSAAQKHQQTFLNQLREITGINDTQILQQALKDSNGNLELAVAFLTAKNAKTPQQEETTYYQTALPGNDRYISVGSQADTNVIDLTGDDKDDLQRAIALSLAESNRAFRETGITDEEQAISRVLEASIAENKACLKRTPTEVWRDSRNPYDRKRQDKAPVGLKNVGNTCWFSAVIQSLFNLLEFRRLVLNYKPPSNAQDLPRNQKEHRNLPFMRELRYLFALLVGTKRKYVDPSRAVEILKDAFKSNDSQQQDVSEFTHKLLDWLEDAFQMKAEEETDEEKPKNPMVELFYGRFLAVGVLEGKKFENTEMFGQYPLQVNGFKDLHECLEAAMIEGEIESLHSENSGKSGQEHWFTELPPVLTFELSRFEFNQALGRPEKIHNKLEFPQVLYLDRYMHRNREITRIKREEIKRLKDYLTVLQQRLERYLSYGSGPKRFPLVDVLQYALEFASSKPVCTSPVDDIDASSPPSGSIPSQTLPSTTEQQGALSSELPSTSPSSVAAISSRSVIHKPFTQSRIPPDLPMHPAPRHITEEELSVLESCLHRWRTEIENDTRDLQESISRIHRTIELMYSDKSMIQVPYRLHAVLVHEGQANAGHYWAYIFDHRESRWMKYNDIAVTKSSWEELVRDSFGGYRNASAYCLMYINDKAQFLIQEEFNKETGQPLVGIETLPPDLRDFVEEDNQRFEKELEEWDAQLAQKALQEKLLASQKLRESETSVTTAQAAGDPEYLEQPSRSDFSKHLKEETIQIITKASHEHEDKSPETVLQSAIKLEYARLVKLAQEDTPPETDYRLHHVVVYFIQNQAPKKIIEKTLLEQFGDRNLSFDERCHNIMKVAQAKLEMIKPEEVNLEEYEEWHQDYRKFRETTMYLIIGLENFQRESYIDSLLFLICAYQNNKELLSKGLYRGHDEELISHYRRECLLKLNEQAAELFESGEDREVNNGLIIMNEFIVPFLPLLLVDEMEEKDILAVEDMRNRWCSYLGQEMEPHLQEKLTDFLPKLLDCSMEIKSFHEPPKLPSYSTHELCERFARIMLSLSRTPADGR
The test is described as follows: Ubiquitin-Rhodamine 110 Assay for USP25 Activity, Example A-2. The class given is biochemical. To be noted: Ubiquitin-Rhodamine 110 assay, Example A-2; read-out: USP25 A-2 IC50 range. The gist of the method: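 USP25-His6 (75 pM) was preincubated with compound (10-point, 3-fold series, 25 μM to 1.3 nM) for 30 min in 20 mM Tris-HCl pH 8.0, 3 mM BME, 0.03% BGG, 0.01% Triton X-100. Ub-Rh110 (25 nM, <<Km) was then added for 45 min at room temperature, citric acid-stopped, and fluorescence read at 485/535 nm.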

A value given as a limit tells only on which side of the number the result lay.

On to `CO[C@H]1CN(c2cc3c(c(F)c2C#N)C[C@@H](NC(=O)c2sc4nc(C)ccc4c2N)CO3)C[C@@H]1N` [Example 200], for which the IC50 lay within 50 to 200 nM.

For the compound `CO[C@H]1CN(c2cc3c(cc2C#N)C[C@@H](NC(=O)c2sc4nc(C)ccc4c2N)CC3)C[C@@H]1N` [Example 201, 3-amino-N-[(2S)-6-[(3S,4S)-3-amino-4-methoxypyrrolidin-1-yl]-7-cyano-1,2,3,4-tetrahydronaphthalen-2-yl]-6-methylthieno[2,3-b]pyridine-2-carboxamide], the half-inhibitory concentration (IC50) is 200 to 2000 nM.

For the compound `Cc1ccc2c(N)c(C(=O)N[C@H]3COc4cc(N5C[C@H](OC(C)C)[C@@H](N)C5)ccc4C3)sc2n1` [Example 202, 3-amino-N-[(3R)-7-[(3S,4S)-3-amino-4-(propan-2-yloxy)pyrrolidin-1-yl]-3,4-dihydro-2H-1-benzopyran-3-yl]6-methylthieno[2,3-b]pyridine-2-carboxamide], the IC50 was in the range of 200 to 2000 nM.

Take `CO[C@H]1CN(c2ccc3c(n2)CC[C@H](NC(=O)c2sc4nc(C)c(F)cc4c2N)C3)C[C@@H]1N` [Example 203, 3-amino-N-[(6S)-2-[(3S,4S)-3-amino-4-methoxypyrrolidin-1-yl]-5,6,7,8-tetrahydroquinolin-6-yl}-5-fluoro-6-methylthieno[2,3-b]pyridine-2-carboxamide]: the 50% inhibitory concentration (IC50) was > 2000 nM.

As for `Cc1nc2sc(C(=O)N[C@H]3CCc4nc(N5CCNCC5)ccc4C3)c(N)c2cc1F` [Example 204, 3-amino-5-fluoro-6-methyl-N-[(6S)-2-(piperazin-1-yl)-5,6,7,8-tetrahydroquinolin-6-yl]thieno[2,3-b]pyridine-2-carboxamide], the IC50 is 200 to 2000 nM.

`Cc1ccc2c(N)c(C(=O)N[C@H]3Cc4ccc(N5CCNCC5)nc4[C@@H](C)C3)sc2n1` [Example 206, 3-amino-6-methyl-N-[(6R,8S)-8-methyl-2-(piperazin-1-yl)-5,6,7,8-tetrahydroquinolin-6-yl]thieno[2,3-b]pyridine-2-carboxamide]: the IC50 is > 2000 nM.

In the case of `Cc1ccc2c(N)c(C(=O)N[C@@H]3Cc4ccc(N5CCNCC5)nc4[C@H](C)C3)sc2n1` [Example 207, 3-amino-6-methyl-N-[(6S,8R)-8-methyl-2-(piperazin-1-yl)-5,6,7,8-tetrahydroquinolin-6-yl]thieno[2,3-b]pyridine-2-carboxamide], the IC50 was > 2000 nM.

Turning to `Cc1ccc2c(N)c(C(=O)N[C@H]3Cc4ccc(N5CCNCC5)nc4[C@H](C)C3)sc2n1` [Example 208, 3-amino-6-methyl-N-[(6R,8R)-8-methyl-2-(piperazin-1-yl)-5,6,7,8-tetrahydroquinolin-6-yl]thieno[2,3-b]pyridine-2-carboxamide], the IC50 fell in the range of 200 to 2000 nM.

Consider `Cc1ccc2c(N)c(C(=O)N[C@H]3COc4cc(N5C6CNCC5COC6)ccc4C3)sc2n1` [Example 209, 3-amino-6-methyl-N-[(3R)-7-{3-oxa-7,9-diazabicyclo[3.3.1]nonan-9-yl}-3,4-dihydro-2H-1-benzopyran-3-yl]thieno[2,3-b]pyridine-2-carboxamide], for which the IC50 fell in the range of 1 to 50 nM.

`CO[C@@]1(C)CN(c2ccc3c(n2)CC[C@H](NC(=O)c2sc4nc(C)ccc4c2N)C3)C[C@@H]1N` [Example 210, 3-amino-N-[(6S)-2-[(3S,4S)-4-amino-3-methoxy-3-methylpyrrolidin-1-yl]-5,6,7,8-tetrahydroquinolin-6-yl]-6-methylthieno[2,3-b]pyridine-2-carboxamide]: the half-inhibitory concentration (IC50) is > 2000 nM.

Take `CO[C@]1(C)CN(c2ccc3c(n2)CC[C@H](NC(=O)c2sc4nc(C)ccc4c2N)C3)C[C@H]1N` [Example 211, 3-amino-N-[(6S)-2-[(3R,4R)-4-amino-3-methoxy-3-methylpyrrolidin-1-yl]-5,6,7,8-tetrahydroquinolin-6-yl]-6-methylthieno[2,3-b]pyridine-2-carboxamide]: the concentration for half-maximal inhibition (IC50) is > 2000 nM.

As to `CN[C@H]1CN(c2ccc3c(c2)OC[C@H](NC(=O)c2sc4nc(C)ccc4c2N)C3)C[C@@H]1OC` [Example 212, 3-amino-N-[(3R)-7-[(3S,4S)-3-methoxy-4-(methylamino)pyrrolidin-1-yl]-3,4-dihydro-2H-1-benzopyran-3-yl]-6-methylthieno[2,3-b]pyridine-2-carboxamide], the concentration for half-maximal inhibition (IC50) was in the range of 200 to 2000 nM.

As for `CO[C@H]1CN(c2ccc3c(c2)OC[C@H](NC(=O)c2sc4nc(C)ccc4c2N)C3)C[C@@H]1NC(C)=O` [Example 213, 3-amino-N-[(3R)-7-[(3S,4S)-3-acetamido-4-methoxypyrrolidin-1-yl]-3,4-dihydro-2H-1-benzopyran-3-yl]-6-methylthieno[2,3-b]pyridine-2-carboxamide], the half-inhibitory concentration (IC50) was 200 to 2000 nM.

With `Cc1ccc2c(N)c(C(=O)N[C@H]3COc4cc(N5C[C@H](N)C(C)(C)C5)ccc4C3)sc2n1` [Example 214, 3-amino-N-[(3R)-7-[(4R)-4-amino-3,3-dimethylpyrrolidin-1-yl]-3,4-dihydro-2H-1-benzopyran-3-yl]-6-methylthieno[2,3-b]pyridine-2-carboxamide], the half-maximal inhibitory concentration (IC50) was 50 to 200 nM.

Consider `Cc1ccc2c(N)c(C(=O)N[C@H]3COc4cc(N5C[C@@H](N)C(C)(C)C5)ccc4C3)sc2n1` [Example 215, 3-amino-N-[(3R)-7-[(4S)-4-amino-3,3-dimethylpyrrolidin-1-yl]-3,4-dihydro-2H-1-benzopyran-3-yl]-6-methylthieno[2,3-b]pyridine-2-carboxamide], for which the IC50 lay within 50 to 200 nM.

Turning to `Cc1ccc2c(N)c(C(=O)N[C@H]3CCc4nc(N5CC[C@H]6CNC[C@H]65)ccc4C3)sc2n1` [Example 216, N-[(6S)-2-[(3aS,6aS)-octahydropyrrolo[2,3-c]pyrrol-1-yl}-5,6,7,8-tetrahydroquinolin-6-yl]-3-amino-6-methylthieno[2,3-b]pyridine-2-carboxamide], the half-inhibitory concentration (IC50) was in the range of 200 to 2000 nM.

Consider `Cc1ccc2c(N)c(C(=O)N[C@H]3CCc4nc(N5CC[C@@H]6CNC[C@@H]65)ccc4C3)sc2n1` [Example 217, N-[(6S)-2-[(3aR,6aR)-octahydropyrrolo[2,3-c]pyrrol-1-yl]-5,6,7,8-tetrahydroquinolin-6-yl]-3-amino-6-methylthieno[2,3-b]pyridine-2-carboxamide], for which the IC50 is 50 to 200 nM.

On to `Cc1cc(C)c2c(N)c(C(=O)N[C@H]3CCc4nc(N5CC[C@H]6CNC[C@H]65)ccc4C3)sc2n1` [Example 218, N-[(6S)-2-[(3aS 6aS)-octahydropyrrolo[2,3-c]pyrrol-1-yl]-5,6,7,8-tetrahydroquinolin-6-yl]-3-amino-4,6-dimethylthieno[2,3-b]pyridine-2-carboxamide], for which the IC50 was in the range of 200 to 2000 nM.

As to `Cc1cc(C)c2c(N)c(C(=O)N[C@H]3CCc4nc(N5CC[C@@H]6CNC[C@@H]65)ccc4C3)sc2n1` [Example 219, N-[(6S)-2-[(3aR,6aR)-octahydropyrrolo[2,3-c]pyrrol-1-yl]-5,6,7,8-tetrahydroquinolin-6-yl]-3-amino-4,6-dimethylthieno[2,3-b]pyridine-2-carboxamide], the half-maximal inhibitory concentration (IC50) was in the range of 50 to 200 nM.

In the case of `Cc1ccc2c(N)c(C(=O)N[C@H]3COc4cc(N5CC[C@H]6CNC[C@H]65)cc(F)c4C3)sc2n1` [Example 220, N-[(3R)-7-[(3aS,6aS)-octahydropyrrolo[2,3-c]pyrrol-1-yl]-5-fluoro-3,4-dihydro-2H-1-benzopyran-3-yl]-3-amino-6-methylthieno[2,3-b]pyridine-2-carboxamide], the IC50 fell in the range of 50 to 200 nM.

`Cc1ccc2c(N)c(C(=O)N[C@H]3COc4cc(N5CC[C@@H]6CNC[C@@H]65)cc(F)c4C3)sc2n1` [Example 221, N-[(3R)-7-[(3aR,6aR)-octahydropyrrolo[2,3-c]pyrrol-1-yl]-5-fluoro-3,4-dihydro-2H-1-benzopyran-3-yl]-3-amino-6-methylthieno[2,3-b]pyridine-2-carboxamide]: the IC50 was in the range of 200 to 2000 nM.

`Cc1ccc2c(N)c(C(=O)N[C@H]3COc4cc(N5CC[C@H]6CCNC[C@H]65)ccc4C3)sc2n1` [Example 224, N-[(3R)-7-[(3aR,7aS)-octahydro-1H-pyrrolo[2,3-c]pyridin-1-yl]-3,4-dihydro-2H-1-benzopyran-3-yl]-3-amino-6-methylthieno[2,3-b]pyridine-2-carboxamide]: the IC50 was 50 to 200 nM.

In the case of `Cc1ccc2c(N)c(C(=O)N[C@H]3COc4cc(N5CC[C@@H]6CCNC[C@@H]65)ccc4C3)sc2n1` [Example 225], the IC50 was 1 to 50 nM.
